Measurements from patent publication US5284862A, “Derivatives of 2-carboxyindoles having pharmaceutical activity” (Warner-Lambert Company, priority 1992, dated 1994).

Assays:
[1] = biological target: T1, strychnine insensitive glycine receptor which is located on the NMDA receptor complex (Rattus norvegicus, UniProt P35439); assay: glycine binding assay ([3H]-Gly); conditions: for IC50: [3H]-glycine binding; for inhibition at 10 µM: read-out: [3H]-Gly, % Inh. at 10 μM
T1 construct: from tissue
Description: Specifically, the compounds of the present invention have activity as antagonists at the strychnine insensitive glycine receptor which is located on the NMDA receptor complex. As such, the compounds of the present invention are NMDA receptor antagonists. Also, the compounds of the present invention have activity as AMPA and kainate receptor antagonists.
The glycine binding assay is performed essentially as described by W. Frost White, et al, Journal of Neurochemistry 1989;53(2):503-12.

AMPA receptor = assay: AMPA binding assay ([3H]-AMPA); conditions: [3H]-AMPA binding; unit inferred
Excerpt: The AMPA binding assay may also be performed to provide an activity profile for the compounds of the present invention.

cortical neuronal cells = assay: glutamate-induced lactate dehydrogenase (LDH) efflux assay; format: cell-based; conditions: glutamate exposure 5 minutes; LDH released into the culture medium 1 day after exposure
Description: The glutamate-induced lactate dehydrogenase (LDH) efflux assay is also used to measure the activity of the compounds of the present invention. Procedures for evaluating neurotoxicity in cortical neuronal cells by measuring efflux of LDH are carried out similarly as described by J. Y. Koh and D. W. Choi, J. Neurosci. Methods 1987;20:83-90. Only mature ([…] in vitro) cortical cultures were selected for study. Cells were exposed for 5 minutes to a glutamate exposure solution. Compounds tested were added to the glutamate exposure medium. In all experiments the glutamate exposure was removed and fresh buffer was added. Overall neuronal injury was quantitatively assessed by measurement of LDH released into the culture medium 1 day after glutamate exposure (see J. G. Klingman, D. M. Hartley, D. W. Choi, J. Neurosci. Methods 1989;31:47-51) using a 96-well plate reader.

SMILES: O=C(O)/C=C/c1c(C(=O)O)[nH]c2cc(Cl)cc(Cl)c12
- IC50 [1]: 0.18 µM
- IC50 (AMPA receptor): 203 µM
- IC50 (cortical neuronal cells): 10.2 µM

SMILES: O=C(CCc1c(C(=O)O)[nH]c2cc(Cl)cc(Cl)c12)NS(=O)(=O)c1ccccc1
- IC50 [1]: 0.068 µM
- IC50 (AMPA receptor): 113 µM
- IC50 (cortical neuronal cells): 7.8 µM

SMILES: CS(=O)(=O)NC(=O)CCc1c(C(=O)O)[nH]c2cc(Cl)cc(Cl)c12
- IC50 [1]: 0.543 µM
- IC50 (AMPA receptor): 80 µM
- IC50 (cortical neuronal cells): 21.5 µM

SMILES: O=C(CCCc1c(C(=O)O)[nH]c2cc(Cl)cc(Cl)c12)NS(=O)(=O)c1ccccc1
- inhibition at 10 µM [1]: 89%
- IC50 (AMPA receptor): 108 µM

SMILES: [N-]=[N+]=Nc1cccc(S(=O)(=O)NC(=O)CCc2c(C(=O)O)[nH]c3cc(Cl)cc(Cl)c23)c1
- IC50 [1]: 0.079 µM
- IC50 (AMPA receptor): 150 µM
- IC50 (cortical neuronal cells): 6 µM

SMILES: O=C(/C=C/c1c(C(=O)O)[nH]c2cc(Cl)cc(Cl)c12)NS(=O)(=O)c1ccccc1
- inhibition at 10 µM [1]: 87%
- IC50 (AMPA receptor): 122 µM

SMILES: O=C(/C=C/c1c(C(=O)O)[nH]c2cc(Cl)cc(Cl)c12)NCc1ccccc1
- inhibition at 10 µM [1]: 84%
- IC50 (AMPA receptor): 213 µM
